Experimental data published in patent publication US20200138827A1, “SMALL MOLECULE MODULATORS OF HUMAN STING” (Curadev Pharma Limited, priority 2017, published 2020).

Target: T1, WT/R232 STING protein (Homo sapiens, UniProt Q86WV6, H232R)
T1 construct: host or cells: HEK293T
Test: Luciferase reporter assay in HEK293T-hSTING-Luciferase cells, WT/R232
Type: cell-based
Details: 20 hr stimulation, read-out: R232 Activity (EC50 range)
How it was run: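 Clonal HEK293T cells stably expressing human STING R232 plus an ISRE/ISG54-driven luciferase reporter, 5×10^5 per well, stimulated with compounds for 20 h. Secreted luciferase in supernatant measured by luminescence; […].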

T1 sequence (Q86WV6 whole entry H232R): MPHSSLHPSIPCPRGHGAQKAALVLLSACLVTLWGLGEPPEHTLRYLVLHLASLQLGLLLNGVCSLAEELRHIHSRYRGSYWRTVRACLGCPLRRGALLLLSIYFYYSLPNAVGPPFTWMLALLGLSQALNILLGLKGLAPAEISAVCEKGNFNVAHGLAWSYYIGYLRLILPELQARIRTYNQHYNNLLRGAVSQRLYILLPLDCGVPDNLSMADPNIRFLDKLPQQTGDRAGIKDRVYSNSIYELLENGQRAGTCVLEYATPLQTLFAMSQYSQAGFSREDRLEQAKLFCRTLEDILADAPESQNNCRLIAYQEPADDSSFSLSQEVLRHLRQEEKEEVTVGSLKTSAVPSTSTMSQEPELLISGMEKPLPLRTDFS

Compound	EC50 [µM]
O=C(NCCC1CCCCC1)c1ccc2c(c1)N(Cc1ccccc1)C(=O)CS2 [Example 81, 4-benzyl-N-(2-cyclohexylethyl)-3-oxo-3,4-dihydro-2H-benzo[b-1,4]thiazine-6-carboxamide]	> 10
O=C(NCc1ccco1)c1ccc2c(c1)N(C(=O)c1c(F)cccc1Cl)CCO2 [Example 265, 4-(2-chloro-6-fluorobenzoyl)-N-(furan-2-ylmethyl)-3,4-dihydro-2H-benzo[b-1,4]oxazine-6-carboxamide]	> 10
Cc1csc(CNC(=O)c2ccc3c(c2)N(Cc2ccccc2)C(=O)CS3)n1 [Example 65, 4-benzyl-N-((4-methylthiazol-2-yl)methyl)-3-oxo-3,4-dihydro-2H-benzo[b-1,4]thiazine-6-carboxamide]	> 10
O=C(NCc1ccco1)c1ccc2c(c1)N(Cc1ccccc1)CCS2(=O)=O [Example 252, 4-Benzyl-N-(furan-2-ylmethyl)-3,4-dihydro-2H-benzo[b-1,4]thiazine-6-carboxamide 1,1-dioxide]	> 10
O=C(NC1(c2ccccc2)CCCC1)c1ccc2c(c1)N(Cc1ccccc1)C(=O)CS2 [Example 75, 4-benzyl-3-oxo-N-(1-phenylcyclopentyl)-3,4-dihydro-2H-benzo[b-1,4]thiazine-6-carboxamide]	> 10
O=C(NCc1ccco1)c1ccc2c(c1)N(Cc1nc3ccccc3s1)C(=O)CS2 [Example 6, 4-(benzo[d]thiazol-2-ylmethyl)-N-(furan-2-ylmethyl)-3-oxo-3,4-dihydro-2H-benzo[b-1,4]thiazine-6-carboxamide]	> 10
O=C(NCc1cc2cccnc2o1)c1ccc2c(c1)N(Cc1cc(F)cc(F)c1)C(=O)CC2 [Example 274, 1-(3,5-difluorobenzyl)-N-(furo[2,3-b]pyridin-2-ylmethyl)-2-oxo-1,2,3,4-tetrahydroquinoline-7-carboxamide]	> 10
CC1Sc2ncc(C(=O)NCc3cnn(C)c3)cc2N(Cc2cc(F)cc(F)c2)C1=O (stereo not shown) [Example 216, 1-(3,5-difluorobenzyl)-3-methyl-N-((1-methyl-1H-pyrazol-4-yl)methyl)-2-oxo-2,3-dihydro-1H-pyrido[2,3-b][1,4] thiazine-7-carboxamide]	> 10
O=C(NCc1cc2ccccc2o1)c1cnc2c(c1)N(Cc1cc(F)cc(F)c1)C(=O)CC2 [Example 278, N-(benzofuran-2-ylmethyl)-5-(3,5-difluorobenzyl)-6-oxo-5,6,7,8-tetrahydro-1,5-naphthyridine-3-carboxamide]	> 10
O=C(NCc1ccco1)c1ccc2c(c1)N(Cc1ccccc1)C(=S)CS2 [Example 266, 4-Benzyl-N-(furan-2-ylmethyl)-3-thioxo-3,4-dihydro-2H-benzo[b-1,4]thiazine-6-carboxamide]	> 10
O=C(NCc1ccco1)c1ccc2c(c1)N(CC(O)c1ccccc1)C(=O)CS2 (stereo not shown) [Example 17, N-(furan-2-ylmethyl)-4-(2-hydroxy-2-phenylethyl)-3-oxo-3,4-dihydro-2H-benzo[b-1,4]thiazine-6-carboxamide]	> 10
Cc1cnc(CNC(=O)c2ccc3c(c2)N(Cc2cnn(C)c2)C(=O)C(C)S3)o1 (stereo not shown) [Example 173, 2-methyl-4-((1-methyl-1H-pyrazol-4-yl)methyl)-N-((5-methyloxazol-2-yl)methyl)-3-oxo-3,4-dihydro-2H-benzo[b][1,4] thiazine-6-carboxamide]	> 10
CC1(CO)Sc2ncc(C(=O)NCc3cc4ccccc4o3)cc2N(Cc2cc(F)cc(F)c2)C1=O (stereo not shown) [Example 210, N-(benzofuran-2-ylmethyl)-1-(3,5-difluorobenzyl)-3-(hydroxymethyl)-3-methyl-2-oxo-2,3-dihydro-1H-pyrido[2,3-b] [1,4] thiazine-7-carboxamide]	> 10
CC(NC(=O)c1ccc2c(c1)N(Cc1ccccc1F)C(=O)CS2)C12C[C@H]3C[C@@H](C1)C[C@@H](C2)C3 (stereo partly shown) [Example 23, N-(1-((3r,5r,7r)-adamantan-1-yl)ethyl)-4-(2-fluorobenzyl)-3-oxo-3,4-dihydro-2H-benzo[b-1,4]thiazine-6-carboxamide]	> 10
O=C(NC(Cc1ccccc1)c1ccccc1)c1ccc2c(c1)N(Cc1ccccc1)C(=O)CS2 (stereo not shown) [Example 79, 4-benzyl-N-(1,2-diphenylethyl)-3-oxo-3,4-dihydro-2H-benzo[b-1,4]thiazine-6-carboxamide]	> 10
O=C(NCc1cc2ncccc2o1)c1ccc2c(c1)N(Cc1cc(F)cc(F)c1)C(=O)CC2 [Example 275, 1-(3,5-difluorobenzyl)-N-(furo[3,2-b]pyridin-2-ylmethyl)-2-oxo-1,2,3,4-tetrahydroquinoline-7-carboxamide]	> 10
CC(NC(=O)c1ccc2c(c1)N(Cc1ccccc1)C(=O)CS2)c1ccc(S(C)(=O)=O)cc1 (stereo not shown) [Example 57, 4-benzyl-N-(1-(4-(methylsulfonyl)phenyl)ethyl)-3-oxo-3,4-dihydro-2H-benzo[b-1,4]thiazine-6-carboxamide]	> 10
C[C@@H](NC(=O)c1ccc2c(c1)N(Cc1ccccc1F)C(=O)CS2)C1CCCCC1 [Example 19, (R)-N-(1-cyclohexyl-ethyl)-4-(2-flurobenzyl)-3-oxo-3,4-dihydro-2H-benzo[b-1,4]thiazine-6-carboxamide]	> 10
Cc1noc(CN2C(=O)CSc3ccc(C(=O)NCc4ccco4)cc32)n1 [Example 84, N-(furan-2-ylmethyl)-4-((3-methyl-1,2,4-oxadiazol-5-yl)methyl)-3-oxo-3,4-dihydro-2H-benzo[b-1,4]thiazine-6-carboxamide]	> 10
Cn1cccc1CNC(=O)c1ccc2c(c1)N(Cc1ccccc1)C(=O)CS2 [Example 10, 4-benzyl-N-((1-methyl-1H-pyrrol-2-yl)methyl)-3-oxo-3,4-dihydro-2H-benzo[b-1,4]thiazine-6-carboxamide]	> 10

Next, values leading:

EC50 [µM]	Compound
> 10	Nc1ccc(CNC(=O)c2ccc3c(c2)N(Cc2ccccc2)C(=O)CS3)cn1 [Example 52, N-((6-aminopyridin-3-yl)methyl)-4-benzyl-3-oxo-3,4-dihydro-2H-benzo[b-1,4]thiazine-6-carboxamide]
1 to 10	C[C@@H]1Oc2ncc(C(=O)NCc3cc4ccccc4o3)cc2N(Cc2cc(F)cc(F)c2)C1=O [Example 241, (S)-N-(benzofuran-2-ylmethyl)-1-(3,5-difluorobenzyl)-3-methyl-2-oxo-2,3-dihydro-1H-pyrido[2,3-b][1,4]oxazine-7-carboxamide]
> 10	Cc1cccc(CN2C(=O)CSc3ccc(C(=O)NCC4CCCCC4)cc32)c1C [Example 25, N-(cyclohexyl-methyl)-4-(2,3-dimethyl-benzyl)-3-oxo-3,4-dihydro-2H-benzo[b-1,4]thiazine-6-carboxamide]
< 1	CC1Sc2ccc(C(=O)NCc3c(F)cc(F)cc3F)cc2N(Cc2c(F)ccc(O)c2Cl)C1=O (stereo not shown) [Example 155, 4-(2-chloro-6-fluoro-3-hydroxybenzyl)-2-methyl-3-oxo-N-(2,4,6-trifluorobenzyl)-3,4-dihydro-2H-benzo[b][1,4] thiazine-6-carboxamide]
> 10	O=C(NCc1ccco1)c1cc(Br)c2c(c1)N(Cc1ccccc1F)C(=O)CS2 [Example 221, 8-bromo-4-(2-fluorobenzyl)-N-(furan-2-ylmethyl)-3-oxo-3,4-dihydro-2H-benzo[b-1,4]thiazine-6-carboxamide]
> 10	C[C@H](NC(=O)c1ccc2c(c1)N(Cc1ccccc1F)C(=O)CS2)C1CCCCC1 [Example 18, (S)-N-(1-cyclohexyl-ethyl)-4-(2-fluorobenzyl)-3-oxo-3,4-dihydro-2H-benzo[b-1,4]thiazine-6-carboxamide]
> 10	Nc1ncc(NC(=O)CN2C(=O)CSc3ccc(C(=O)NCc4ccco4)cc32)cn1 [Example 9, 4-(2-((2-amino-pyrimidin-5-yl)amino)-2-oxoethyl)-N-(furan-2-ylmethyl)-3-oxo-3,4-dihydro-2H-benzo[b-1,4]thiazine-6-carboxamide]
1 to 10	O=C(NCc1ccco1)c1ccc2c(c1)N(Cc1cc(F)ccc1Cl)C(=O)CS2 [Example 99, 4-(2-chloro-5-fluorobenzyl)-N-(furan-2-ylmethyl)-3-oxo-3,4-dihydro-2H-benzo[b-1,4]thiazine-6-carboxamide]
1 to 10	O=C(NCc1c(F)cccc1Cl)c1ccc2c(c1)N(Cc1c(F)cccc1Cl)C(=O)CS2 [Example 21, N,4-bis(2-chloro-6-fluorobenzyl)-3-oxo-3,4-dihydro-2H-benzo[b-1,4]thiazine-carboxamide]
1 to 10	O=C(NCc1ccc2ccccc2c1)c1ccc2c(c1)N(Cc1ccccc1)C(=O)CS2 [Example 74, 4-benzyl-N-(naphthalen-2-ylmethyl)-3-oxo-3,4-dihydro-2H-benzo[b-1,4]thiazine-6-carboxamide]
1 to 10	C[C@H]1Oc2ncc(C(=O)NCc3c(F)cc(F)cc3F)cc2N(Cc2cc(F)cc(F)c2)C1=O [Example 238, (R)-1-(3,5-difluorobenzyl)-3-methyl-2-oxo-N-(2,4,6-trifluorobenzyl)-2,3-dihydro-1H-pyrido[2,3-b-1,4]oxazine-7-carboxamide]
1 to 10	C[C@@H]1Oc2ncc(C(=O)NCc3c(F)cc(F)cc3F)cc2N(Cc2cc(F)cc(F)c2)C1=O [Example 237, (S)-1-(3,5-difluorobenzyl)-3-methyl-2-oxo-N-(2,4,6-trifluorobenzyl)-2,3-dihydro-1H-pyrido[2,3-b-1,4]oxazine-7-carboxamide]
1 to 10	O=C(NCc1ccc2ccccc2c1)c1ccc2c(c1)N(Cc1c(F)cccc1Cl)C(=O)CS2 [Example 32, 4-(2-chloro-6-fluorobenzyl)-N-(naphthalen-2-ylmethyl)-3-oxo-3,4-dihydro-2H-benzo[b-1,4]thiazine 6-carboxamide]
< 1	O=C(NCc1c(F)cc(F)cc1F)c1ccc2c(c1)N(Cc1c(F)cc(O)cc1F)C(=O)CS2 [Example 115, 4-(2,6-difluoro-4-hydroxybenzyl)-3-oxo-N-(2,4,6-trifluorobenzyl)-3,4-dihydro-2H-benzo[b][1,4] thiazine-6-carboxamide]
